The source of these data is PMC10175918 (Communications Biology, 2023).

Assay in all cases: TGFα-shedding assay-based GPCR screening with chimeric Gα subunit proteins
Common to all, as to type: cell-based

Experiment [1] deals with 348 GPCRs (Homo sapiens, UniProt P21918). The note with it: 10µM, Favipiravir 100μM.
Experiment [2] concerns the target T1, 348 GPCRs (Homo sapiens, UniProt P43657).
T1 construct: expressed in transfected cells; host or cells: HEK293A
T1 sequence (P43657 1-344): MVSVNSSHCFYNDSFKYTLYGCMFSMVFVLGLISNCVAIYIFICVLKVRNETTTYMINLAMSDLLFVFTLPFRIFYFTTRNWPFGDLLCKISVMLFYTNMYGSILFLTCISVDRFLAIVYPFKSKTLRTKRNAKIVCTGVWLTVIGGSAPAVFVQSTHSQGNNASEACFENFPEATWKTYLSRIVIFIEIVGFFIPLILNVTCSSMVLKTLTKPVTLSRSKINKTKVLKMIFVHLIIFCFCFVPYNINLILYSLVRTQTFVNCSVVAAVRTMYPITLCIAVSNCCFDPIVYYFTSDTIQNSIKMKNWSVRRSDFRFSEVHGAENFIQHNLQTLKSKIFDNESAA
The note with it: 10µM, Favipiravir 100μM.

Experiment [3] addresses T2, 348 GPCRs (Homo sapiens, UniProt Q9HC97).
T2 construct: expressed in transfected cells; host or cells: HEK293A
Particulars: 10µM, Favipiravir 100μM.

For experiment [4], the target named is T3, 348 GPCRs (Homo sapiens, UniProt P47804).
T3 construct: expressed in transfected cells; host or cells: HEK293A
T3 sequence (P47804 1-291): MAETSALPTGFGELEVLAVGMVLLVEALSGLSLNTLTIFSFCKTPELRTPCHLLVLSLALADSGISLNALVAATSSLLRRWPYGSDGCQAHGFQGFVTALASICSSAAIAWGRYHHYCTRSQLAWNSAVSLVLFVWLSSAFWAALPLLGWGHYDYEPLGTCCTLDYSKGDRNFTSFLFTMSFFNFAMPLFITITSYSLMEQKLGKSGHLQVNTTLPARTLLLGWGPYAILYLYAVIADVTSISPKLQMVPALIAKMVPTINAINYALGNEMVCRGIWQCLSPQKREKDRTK
The note with it: 10µM, Favipiravir 100μM.

The target of experiment [5] is T4, 348 GPCRs (Homo sapiens, UniProt Q8IZF5).
T4 construct: expressed in transfected cells; host or cells: HEK293A
T4 sequence (Q8IZF5 26-1079): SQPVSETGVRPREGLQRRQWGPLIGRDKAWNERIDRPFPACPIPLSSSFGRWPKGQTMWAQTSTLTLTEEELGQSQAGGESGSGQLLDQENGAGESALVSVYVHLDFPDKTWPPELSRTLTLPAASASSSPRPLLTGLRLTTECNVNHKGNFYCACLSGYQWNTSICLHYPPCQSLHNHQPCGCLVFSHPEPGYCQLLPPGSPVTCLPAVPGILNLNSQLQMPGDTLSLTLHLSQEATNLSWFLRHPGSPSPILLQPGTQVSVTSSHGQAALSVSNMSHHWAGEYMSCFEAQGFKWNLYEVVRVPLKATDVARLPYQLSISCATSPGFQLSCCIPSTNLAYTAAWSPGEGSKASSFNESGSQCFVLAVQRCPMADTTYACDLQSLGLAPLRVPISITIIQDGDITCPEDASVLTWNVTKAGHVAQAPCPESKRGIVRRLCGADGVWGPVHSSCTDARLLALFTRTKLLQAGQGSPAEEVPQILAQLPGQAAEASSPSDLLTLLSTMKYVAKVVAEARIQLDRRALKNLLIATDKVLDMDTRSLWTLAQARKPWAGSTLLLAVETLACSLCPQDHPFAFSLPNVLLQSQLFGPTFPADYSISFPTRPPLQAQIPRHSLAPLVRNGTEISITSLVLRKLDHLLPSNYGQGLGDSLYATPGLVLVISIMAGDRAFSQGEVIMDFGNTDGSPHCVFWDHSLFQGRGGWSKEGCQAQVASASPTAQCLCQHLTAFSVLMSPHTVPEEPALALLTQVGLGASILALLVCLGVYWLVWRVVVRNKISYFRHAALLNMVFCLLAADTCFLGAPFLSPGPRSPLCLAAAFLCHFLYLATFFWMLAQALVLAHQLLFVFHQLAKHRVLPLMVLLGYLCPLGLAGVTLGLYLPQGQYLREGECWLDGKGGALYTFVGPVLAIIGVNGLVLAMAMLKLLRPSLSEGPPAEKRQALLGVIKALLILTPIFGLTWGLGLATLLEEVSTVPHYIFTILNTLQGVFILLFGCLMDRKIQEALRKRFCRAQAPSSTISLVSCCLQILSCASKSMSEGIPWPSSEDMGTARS

Experiment [6] has as its target T5, 348 GPCRs (Homo sapiens, UniProt O14804).
T5 construct: expressed in transfected cells; host or cells: HEK293A
T5 sequence (O14804 1-337): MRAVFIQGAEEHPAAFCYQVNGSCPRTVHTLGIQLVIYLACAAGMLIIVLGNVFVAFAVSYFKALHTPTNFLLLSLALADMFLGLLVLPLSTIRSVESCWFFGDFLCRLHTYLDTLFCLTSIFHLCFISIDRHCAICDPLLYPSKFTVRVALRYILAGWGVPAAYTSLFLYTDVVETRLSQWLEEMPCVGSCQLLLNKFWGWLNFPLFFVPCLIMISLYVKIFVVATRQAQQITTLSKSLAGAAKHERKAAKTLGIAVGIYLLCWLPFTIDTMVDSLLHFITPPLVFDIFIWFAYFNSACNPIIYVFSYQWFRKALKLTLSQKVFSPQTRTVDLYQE
The note with it: 10µM, Favipiravir 100μM.

Experiment [7] concerns the target T6, 348 GPCRs (Homo sapiens, UniProt Q99677).
T6 construct: expressed in transfected cells; host or cells: HEK293A
The note with it: LPAR4 (lysophosphatidic acid receptor 4); 10µM, Favipiravir 100μM.

Experiment [8] addresses T7, 348 GPCRs (Homo sapiens, UniProt Q6U736).
T7 construct: expressed in transfected cells; host or cells: HEK293A
The note with it: 10µM, Favipiravir 100μM.

Experiment [9] concerns the target T8, 348 GPCRs (Homo sapiens, UniProt O14842).
T8 construct: expressed in transfected cells; host or cells: HEK293A
Particulars: 10µM, Favipiravir 100μM.

The mark [10] stands for this setting: D5 (dopamine receptor D5), read-out: % GPCR activation compared to TPA.
Where [11] appears, read: LPAR6 (lysophosphatidic acid receptor 6), read-out: % GPCR activation compared to TPA.
[12] abbreviates: GPR35 (G protein-coupled receptor 35), read-out: % GPCR activation compared to TPA.
[13] abbreviates: RGR (Retinal G protein coupled receptor), read-out: % GPCR activation compared to TPA.
Setting [14] is: TAAR5 (trace amine associated receptor 5), read-out: % GPCR activation compared to TPA.
The mark [15] stands for this setting: OPN5 (opsin 5), read-out: % GPCR activation compared to TPA.
Where [16] appears, read: FFA1 (free fatty acid receptor 1), read-out: % GPCR activation compared to TPA.
Setting [17] is: read-out: % GPCR activation compared to TPA, D5 (dopamine receptor D5).
The mark [18] stands for this setting: read-out: % GPCR activation compared to TPA, LPAR6 (lysophosphatidic acid receptor 6).
Setting [19] is: read-out: % GPCR activation compared to TPA, GPR35 (G protein-coupled receptor 35).
[20] abbreviates: read-out: % GPCR activation compared to TPA, RGR (Retinal G protein coupled receptor).
Setting [21] is: read-out: % GPCR activation compared to TPA, GPCR GPR113 (G-protein-coupled receptor 113 (ADGRF3)).
Setting [22] is: read-out: % GPCR activation compared to TPA, TAAR5 (trace amine associated receptor 5).
The mark [23] stands for this setting: read-out: % GPCR activation compared to TPA, OPN5 (opsin 5).
[24] abbreviates: read-out: % GPCR activation compared to TPA, FFA1 (free fatty acid receptor 1).
[25] abbreviates: GPCR GPR113 (G-protein-coupled receptor 113 (ADGRF3)), read-out: % GPCR activation compared to TPA.

Read-outs that look alike come from different tables or passages of the source.

T7 sequence (Q6U736 whole entry): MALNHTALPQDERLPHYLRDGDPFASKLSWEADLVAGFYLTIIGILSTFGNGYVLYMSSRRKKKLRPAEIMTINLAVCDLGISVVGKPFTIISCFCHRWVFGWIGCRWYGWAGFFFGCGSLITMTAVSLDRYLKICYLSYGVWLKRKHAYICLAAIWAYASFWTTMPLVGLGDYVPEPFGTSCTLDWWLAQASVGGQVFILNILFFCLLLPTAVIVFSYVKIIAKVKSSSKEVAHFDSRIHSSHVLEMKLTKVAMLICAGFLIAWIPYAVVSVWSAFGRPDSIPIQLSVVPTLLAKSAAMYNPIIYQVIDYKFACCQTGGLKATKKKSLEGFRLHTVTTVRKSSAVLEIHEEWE
Sequence of 348 GPCRs (Homo sapiens, UniProt P21918) (P21918 whole entry): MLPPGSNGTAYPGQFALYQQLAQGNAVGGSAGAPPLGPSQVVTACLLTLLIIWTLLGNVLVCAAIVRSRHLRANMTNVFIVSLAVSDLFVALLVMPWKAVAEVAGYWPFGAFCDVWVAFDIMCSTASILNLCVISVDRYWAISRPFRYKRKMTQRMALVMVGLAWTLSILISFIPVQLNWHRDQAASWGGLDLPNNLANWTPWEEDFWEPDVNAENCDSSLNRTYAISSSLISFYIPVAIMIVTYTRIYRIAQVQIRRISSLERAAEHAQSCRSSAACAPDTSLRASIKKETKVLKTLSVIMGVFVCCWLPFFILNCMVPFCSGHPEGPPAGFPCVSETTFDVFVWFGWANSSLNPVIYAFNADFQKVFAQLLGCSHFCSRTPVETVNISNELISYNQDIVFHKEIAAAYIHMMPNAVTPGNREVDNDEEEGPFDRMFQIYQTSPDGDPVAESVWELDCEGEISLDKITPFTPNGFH
T6 sequence (Q99677 whole entry): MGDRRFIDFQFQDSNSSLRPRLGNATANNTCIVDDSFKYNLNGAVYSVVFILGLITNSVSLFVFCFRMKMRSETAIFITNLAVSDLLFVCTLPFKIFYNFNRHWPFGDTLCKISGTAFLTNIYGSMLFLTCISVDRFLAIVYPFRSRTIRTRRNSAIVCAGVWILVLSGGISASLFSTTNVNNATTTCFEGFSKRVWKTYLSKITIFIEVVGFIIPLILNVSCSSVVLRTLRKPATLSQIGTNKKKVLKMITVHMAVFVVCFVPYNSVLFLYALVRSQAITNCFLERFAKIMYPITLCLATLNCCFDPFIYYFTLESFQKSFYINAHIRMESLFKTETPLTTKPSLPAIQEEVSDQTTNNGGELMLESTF
T8 sequence (O14842 whole entry): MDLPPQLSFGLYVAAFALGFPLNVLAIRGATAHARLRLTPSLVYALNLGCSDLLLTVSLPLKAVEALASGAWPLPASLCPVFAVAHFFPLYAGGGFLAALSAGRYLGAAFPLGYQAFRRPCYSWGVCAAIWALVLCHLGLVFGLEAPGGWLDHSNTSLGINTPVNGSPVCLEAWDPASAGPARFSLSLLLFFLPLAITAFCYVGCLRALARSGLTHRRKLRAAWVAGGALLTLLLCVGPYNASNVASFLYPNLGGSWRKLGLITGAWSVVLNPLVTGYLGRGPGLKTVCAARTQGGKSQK
T2 sequence (Q9HC97 whole entry): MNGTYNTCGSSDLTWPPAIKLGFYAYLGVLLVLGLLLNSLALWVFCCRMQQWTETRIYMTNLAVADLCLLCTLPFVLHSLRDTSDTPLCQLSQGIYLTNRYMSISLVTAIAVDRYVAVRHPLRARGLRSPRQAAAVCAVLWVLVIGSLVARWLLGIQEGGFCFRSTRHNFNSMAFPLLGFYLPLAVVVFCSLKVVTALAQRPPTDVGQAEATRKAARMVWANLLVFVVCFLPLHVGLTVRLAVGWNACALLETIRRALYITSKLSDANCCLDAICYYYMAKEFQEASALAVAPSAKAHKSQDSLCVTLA

As for `NC(=O)c1nc(F)cnc1O` [favipiravir, 6-fluoro-3-hydroxy-2-pyrazinecarboxamide], the activation at 100 µM on 348 GPCRs [1] (setting [10]) was 3.39%; at 348 GPCRs [4] (setting [13]), -1.43%; at 348 GPCRs [5] (GPCR GPR113 (G-protein-coupled receptor 113 (ADGRF3)), 100μM, read-out: % GPCR activation compared to TPA), -1.12%; at 348 GPCRs [6] (setting [14]), -0.417%; on 348 GPCRs [8] (setting [15]) it was -1.8%. The results for the activation at 10 µM at 348 GPCRs [2] (setting [11]), at 348 GPCRs [3] (setting [12]) and at 348 GPCRs [9] (setting [16]) were -2.1%, 3% and -4.93%, respectively. Further, the “% GPCR activation compared to TPA” value on 348 GPCRs [7] is -0.5456%.

Take `CC(C)OC(=O)[C@H](C)N[P@](=O)(OC[C@H]1O[C@@H](n2ccc(=O)[nH]c2=O)[C@](C)(F)[C@@H]1O)Oc1ccccc1` [sofosbuvir]: the activation at 100 µM was -1.22% on 348 GPCRs [1] (setting [17]), -3.06% at 348 GPCRs [4] (setting [20]), -2.96% on 348 GPCRs [6] (setting [22]) and -0.631% at 348 GPCRs [8] (setting [23]). Also, the activation at 10 µM on 348 GPCRs [2] (setting [18]) was 0.0867%; on 348 GPCRs [3] (setting [19]), -7.86%; at 348 GPCRs [5] (setting [21]) it was 0.111%; on 348 GPCRs [9] (setting [24]), -1.47%. Further, the “% GPCR activation compared to TPA” value at 348 GPCRs [7] was 3.133%.

For the compound `CCC(CC)COC(=O)[C@H](C)N[P@](=O)(OC[C@H]1O[C@@](C#N)(c2ccc3c(N)ncnn23)[C@H](O)[C@@H]1O)Oc1ccccc1` [remdesivir], the activation at 100 µM is 7.06% at 348 GPCRs [1] (setting [17]), -0.554% on 348 GPCRs [4] (setting [20]), 0.868% on 348 GPCRs [6] (setting [22]) and -2.25% on 348 GPCRs [8] (setting [23]). Moreover, the activation at 10 µM was -2.67% on 348 GPCRs [2] (setting [18]), 0.537% at 348 GPCRs [3] (setting [19]), 0.66% at 348 GPCRs [5] (setting [21]) and -6.96% on 348 GPCRs [9] (setting [24]). The “% GPCR activation compared to TPA” value at 348 GPCRs [7] is -0.0834%.

Consider `N#C[C@@]1(c2ccc3c(N)ncnn23)O[C@H](CO)[C@@H](O)[C@H]1O` [GS441524], for which the activation at 100 µM on 348 GPCRs [1] (setting [10]) was 1.11%; at 348 GPCRs [4] (setting [13]), -2.11%; at 348 GPCRs [6] (setting [14]), 0.608%; on 348 GPCRs [8] (setting [15]) it was -1.77%. For the same compound, the activation at 10 µM was -2.57% on 348 GPCRs [2] (setting [11]), 4.18% on 348 GPCRs [3] (setting [12]), -1.08% at 348 GPCRs [5] (setting [25]) and -14.2% at 348 GPCRs [9] (setting [16]). The “% GPCR activation compared to TPA” value at 348 GPCRs [7] stood at 1.193%.

As for `CC(C)C(=O)OC[C@H]1O[C@@H](n2ccc(NO)nc2=O)[C@H](O)[C@@H]1O` [molnupiravir], the activation at 100 µM at 348 GPCRs [1] (setting [10]) is -1.18%; at 348 GPCRs [4] (setting [13]), -1.3%; on 348 GPCRs [6] (setting [14]) it was -1.58%; at 348 GPCRs [8] (setting [15]), -2.56%. In addition, the activation at 10 µM is -2.83% on 348 GPCRs [2] (setting [11]), -3.01% on 348 GPCRs [3] (setting [12]), -1.49% at 348 GPCRs [5] (setting [25]) and -2.86% on 348 GPCRs [9] (setting [16]). Further, on 348 GPCRs [7], the “% GPCR activation compared to TPA” value is reported as -0.2125%.
